Reference: publication PMC4321561, “Optimization of the cyclotide framework to improve cell penetration properties” (Frontiers in Pharmacology, 2015)
Where a SMILES comes first, the peptide text is derived from it. Bridges are numbered along the chain shown (N, C = ends). Where no end group is shown, it is not given here.

Columns and labels:
[1] = Serum stability; format: in vitro ADME; conditions: 300 μM stock diluted 10 times in 100% human serum (male AB plasma), 37°C, analytical HPLC, 215 nm, triplicate; for stability in human serum (in words): 0-24 h
Description: The stability of peptides in human serum was examined using a protocol reported previously (Chan et al., [2011]). Briefly, stock solutions of peptides (300 μM) were diluted 10 times with pre-warmed 100% human serum isolated from male AB plasma (Sigma-Aldrich) and incubated at 37°C for 0, 1, 2, 3, 5, 8, 12 and 24 h. Controls with peptides in PBS were included. The reaction was stopped by denaturing the serum proteins with urea at a final concentration of 3 M at 4°C for 10 min, followed by precipitation of serum proteins with trichloroacetic acid at a final concentration of 7% (v/v) (4°C, 10 min) and centrifugation (17,000 g, 10 min). The supernatant of each sample was recovered and run on an analytical column using a linear gradient of 5–30% solvent B (acetonitrile 90% (v/v) with 0.045% (v/v) TFA in H2O) in solvent A (0.05% (v/v) TFA in H2O) over 25 min at a flow rate of 0.3 mL/min with monitoring at 215 nm. The elution profile of each peptide was identified by the PBS sample from 0 time point. The percentage of peptide remaining in serum-treated samples was determined by comparing the height of the peptide peak obtained at each time point with that of the peptide peak obtained at 0 time point. Each experiment was done in triplicate.
Figure 4 Serum-stability of tested peptides. Percentage of peptide remaining upon incubation with human serum. The portion of serum-treated peptide remaining was determined by calculating the height of the respective elution peak in analytical-HPLC and comparing it with control without incubation. Data points are means ± SD of three experiments.

[2] = system: HeLa cells; experiment: Internalization of Alexa fluor 488-labeled peptides into HeLa cells (flow cytometry); format: cell-based, human; conditions: 8 μM Alexa fluor 488-labeled peptide, 1 h, 37°C, medium without serum, flow cytometry, 10,000 cells, mean ± SD of three independent experiments

For `CC[C@H](C)[C@@H]1NC(=O)[C@@H]2CSSC[C@@H]3NC(=O)[C@H](C(C)C)NC(=O)CNC(=O)CNC(=O)[C@H](CC(=O)O)NC(=O)[C@H](CO)NC(=O)CNC(=O)[C@H](CO)NC(=O)CNC(=O)[C@@H]4CSSC[C@H](NC(=O)[C@H](CC(=O)O)NC(=O)[C@H](CO)NC(=O)[C@H](CC(=O)O)NC(=O)[C@H](CCCNC(=N)N)NC(=O)[C@H](CCCNC(=N)N)NC(=O)[C@H](CSSC[C@H](NC1=O)C(=O)N[C@@H](CCCCN)C(=O)NCC(=O)N[C@@H](CC(N)=O)C(=O)NCC(=O)N[C@@H](Cc1ccc(O)cc1)C(=O)N4)NC(=O)[C@H](CCCNC(=N)N)NC(=O)[C@H](CCCNC(=N)N)NC(=O)[C@H](CCCNC(=N)N)NC(=O)[C@H](C)NC(=O)[C@H](CCCNC(=N)N)NC(=O)[C@H](CCCNC(=N)N)NC(=O)CNC(=O)[C@H](Cc1ccc(O)cc1)NC3=O)C(=O)N1CCC[C@H]1C(=O)NCC(=O)N[C@@H](C)C(=O)N2` [MCo-CTP] (cyclo(ACICKGNGYCGSGSDGGVCYGRRARRRCRRDSDCPG); disulfide 2-19, 4-28, 10-34), the “stability in human serum (in words)” value [1] was “stable in human serum” and the remaining at 12 h, 30 µM ([1]; 12 h, peak height vs 0 time point, read-out: peptide remaining intact after 12 h incubation in serum) was > 60%.
In the case of `CC[C@H](C)[C@@H]1NC(=O)[C@@H]2CSSC[C@@H]3NC(=O)[C@H](C(C)C)NC(=O)CNC(=O)CNC(=O)[C@H](CC(=O)O)NC(=O)[C@H](CO)NC(=O)CNC(=O)[C@H](CO)NC(=O)CNC(=O)[C@@H]4CSSC[C@H](NC(=O)[C@H](CC(=O)O)NC(=O)[C@H](CO)NC(=O)[C@H](CC(=O)O)NC(=O)[C@H](CCCNC(=N)N)NC(=O)[C@H](CCCNC(=N)N)NC(=O)[C@H](CSSC[C@H](NC1=O)C(=O)N[C@@H](CCCCN)C(=O)NCC(=O)N[C@@H](CC(N)=O)C(=O)NCC(=O)N[C@@H](Cc1ccc(O)cc1)C(=O)N4)NC(=O)[C@H](CCCNC(=N)N)NC(=O)[C@H](CCCNC(=N)N)NC(=O)[C@H](CC(C)C)NC(=O)[C@H]([C@@H](C)CC)NC(=O)[C@H](CCCNC(=N)N)NC(=O)[C@@H]1CCCN1C3=O)C(=O)N1CCC[C@H]1C(=O)NCC(=O)N[C@@H](C)C(=O)N2` [MCo-RM1] (cyclo(ACICKGNGYCGSGSDGGVCPRILRRCRRDSDCPG); disulfide 2-19, 4-26, 10-32), the “stability in human serum (in words)” value [1] is reported as “stable in human serum”.
In the case of “NH2-YGRKKRRQRRRPPQG-COOH [TAT, gold standard linear cell-penetrating peptide]”, the “Fluorescence signal of HeLa cells, before trypan blue (mean fluorescence emission normalized to TAT after trypan blue)” value ([2]; ex 488 nm / em 530/30 nm) is reported as 1.08 ± 0.07 and the “Fluorescence signal of HeLa cells, after trypan blue (mean fluorescence emission normalized to TAT after trypan blue)” value ([2]; trypan blue 160 μg/mL) is reported as 1.00 ± 0.17.
In the case of YGRKARRRRRR [CTP512], the “time to full degradation by proteases in serum” value ([1]; peak height vs 0 time point) is reported as ≤ 1 h.
